# Source: US11053253B2, “Macrocyclic compounds for treatment of medical disorders” (Achillion Pharmaceuticals, Inc., priority 2017, dated 2021)
# Biological target: Human Factor D (Homo sapiens (Human), UniProt P00746)
# Test: Human Factor D Assay
# Type: biochemical
# Details: Human Factor D 80 nM, substrate Z-L-Lys-SBzl, DTNB, A405; read-out: IC50 (Stars)
# Experimental: Example 2. Human Factor D Assay
# Human Factor D (purified from human serum, Complement Technology, Inc.) at 80 nM final concentration is incubated with test compound at various concentrations for 5 min at room temperature in 50 mM Tris, 1M NaCl, pH 7.5. A synthetic substrate Z-L-Lys-SBzl and DTNB (Ellman's reagent) are added to final concentrations of 100 µM each. Absorbance at 405 nm (A405) is recorded at 30 second intervals for 30 minutes using a microplate spectrophotometer. IC50 values are calculated by nonlinear regression of Complement Factor D reaction rates as a function of test compound concentration.
# Sequence of Human Factor D (P00746 26-253): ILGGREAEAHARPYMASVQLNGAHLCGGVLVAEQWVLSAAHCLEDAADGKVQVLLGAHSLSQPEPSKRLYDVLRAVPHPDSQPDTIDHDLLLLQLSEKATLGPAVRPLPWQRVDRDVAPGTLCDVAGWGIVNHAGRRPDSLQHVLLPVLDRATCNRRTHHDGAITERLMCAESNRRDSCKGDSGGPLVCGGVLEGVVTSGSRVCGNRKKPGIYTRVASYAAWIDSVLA
row,SMILES,IC50 [nM]
1,"CC(=O)c1nn(CC(=O)N2C3CC34COCC=CCOCc3ccc(Br)nc3NC(=O)[C@@H]2C4)c2ccc(-c3cnc(C)nc3)cc12 (stereo partly drawn) [Compound T-1, (43S)-44-(2-(3-acetyl-5-(2-methylpyrimidin-5-yl)-1H-indazol-1-yl)acetyl)-16-bromo-6,11-dioxa-44,2-diaza-1(2,3)-pyridina-4(3,1)-bicyclo[3.1.0]hexanacyclododecaphan-8-en-3-one]",< 1000
2,"CC(=O)c1nn(CC(=O)N2C3CC34CNC(=O)CCC=CCOCc3ccc(Br)nc3NC(=O)[C@@H]2C4)c2ccc(-c3cnc(C)nc3)cc12 (stereo partly drawn) [Compound T-2, (43S)-44-(2-(3-acetyl-5-(2-methylpyrimidin-5-yl)-1H-indazol-1-yl)acetyl)-16-bromo-13-oxa-44,2,6-triaza-1(2,3)-pyridina-4(3,1)-bicyclo[3.1.0]hexanacyclotetradecaphan-10-ene-3,7-dione]",< 1000
3,"CC(=O)c1nn(CC(=O)N2[C@H]3C[C@@]4(COCC=CCOCc5ccc(Br)nc5NC3=O)C[C@@H]24)c2ccc(-c3cnc(C)nc3)cc12 [Compound T-3, (41R,43S,45S)-42-(2-(3-acetyl-5-(2-methylpyrimidin-5-yl)-1H-indazol-1-yl)acetyl)-16-bromo-6,11-dioxa-42,2-diaza-1(2,3)-pyridina-4(3,5)-bicyclo[3.1.0]hexanacyclododecaphan-8-en-3-one]",< 1000
4,"CC(=O)c1nn(CC(=O)N2[C@H]3C[C@@]4(COCCCCOCc5ccc(Br)nc5NC3=O)C[C@@H]24)c2ccc(-c3cnc(C)nc3)cc12 [Compound T-4, (41R,43S,45S)-42-(2-(3-acetyl-5-(2-methylpyrimidin-5-yl)-1H-indazol-1-yl)acetyl)-16-bromo-6,11-dioxa-42,2-diaza-1(2,3)-pyridina-4(3,5)-bicyclo[3.1.0]hexanacyclododecaphan-3-one]",< 1000
5,"CC(=O)c1nn(CC(=O)N2[C@H]3C[C@@]4(COCC=CCOCc5cccnc5NC3=O)C[C@@H]24)c2ccc(-c3cnc(C)nc3)cc12 [Compound T-5, (41R,43S,45S)-42-(2-(3-acetyl-5-(2-methylpyrimidin-5-yl)-1H-indazol-1-yl)acetyl)-6,11-dioxa-42,2-diaza-1(2,3)-pyridina-4(3,5)-bicyclo[3.1.0]hexanacyclododecaphan-8-en-3-one]",< 1000
6,"CC(=O)c1nn(CC(=O)N2[C@H]3C[C@]4(C[C@@H]24)CN(C)CC=CCOCc2ccc(Br)nc2NC3=O)c2ccc(-c3cnc(C)nc3)cc12 [Compound T-6, (41R,43S,45R)-42-(2-(3-acetyl-5-(2-methylpyrimidin-5-yl)-1H-indazol-1-yl)acetyl)-16-bromo-6-methyl-11-oxa-42,2,6-triaza-1(2,3)-pyridina-4(3,5)-bicyclo[3.1.0]hexanacyclododecaphan-8-en-3-one]",< 1000
7,"CC(=O)c1nn(CC(=O)N2[C@H]3C[C@]4(C[C@@H]24)CN(C)CCCCOCc2ccc(Br)nc2NC3=O)c2ccc(-c3cnc(C)nc3)cc12 [Compound T-7, (41R,43S,45R)-42-(2-(3-acetyl-5-(2-methylpyrimidin-5-yl)-1H-indazol-1-yl)acetyl)-16-bromo-6-methyl-11-oxa-42,2,6-triaza-1(2,3)-pyridina-4(3,5)-bicyclo[3.1.0]hexanacyclododecaphan-3-one]",< 1000
8,"CC(=O)c1nn(CC(=O)N2[C@H]3C[C@]4(C[C@@H]24)CN(C)CCCCC=Cc2ccc(Br)nc2NC3=O)c2ccc(-c3cnc(C)nc3)cc12 [Compound T-8, (41R,43S,45R)-42-(2-(3-acetyl-5-(2-methylpyrimidin-5-yl)-1H-indazol-1-yl)acetyl)-16-bromo-6-methyl-42,2,6-triaza-1(2,3)-pyridina-4(3,5)-bicyclo[3.1.0]hexanacyclododecaphan-11-en-3-one]",< 1000
9,"CC(=O)c1nn(CC(=O)N2[C@H]3C[C@@]4(CNS(=O)(=O)CCC=Cc5ccc(Br)nc5NC3=O)C[C@@H]24)c2ccc(-c3cnc(C)nc3)cc12 [Compound T-9, (41R,43S,45R)-42-(2-(3-acetyl-5-(2-methylpyrimidin-5-yl)-1H-indazol-1-yl)acetyl)-16-bromo-7-thia-42,2,6-triaza-1(2,3)-pyridina-4(3,5)-bicyclo[3.1.0]nexanacycloundecaphan-10-en-3-one 7,7-dioxide]",< 1000
10,"CC(=O)c1nn(CC(=O)N2[C@H]3C[C@@]4(COCC=CCOCc5ccc(Br)nc5NC3=O)C[C@@H]24)c2ccccc12 [Compound T-10, (41R,43S,45S)-42-(2-(3-acetyl-1H-indazol-1-yl)acetyl)-16-bromo-6,11-dioxa-42,2-diaza-1(2,3)-pyridina-4(3,5)-bicyclo[3.1.0]hexanacyclododecaphan-8-en-3-one]",< 1000
11,"CC(=O)c1nn(CC(=O)N2[C@H]3C[C@@]4(COCC=CCOCc5ccc(Br)nc5NC3=O)C[C@@H]24)c2cnccc12 [Compound T-11, (41R,43S,45S)-42-(2-(3-acetyl-1H-pyrazolo[3,4-c]pyridin-1-yl)acetyl)-16-bromo-6,11-dioxa-42,2-diaza-1(2,3)-pyridina-4(3,5)-bicyclo[3.1.0]hexanacyclododecaphan-8-en-3-one]",< 1000
12,"CC(=O)c1nn(CC(=O)N2[C@H]3C[C@@]4(COCC=CCOCc5ccc(Br)nc5NC3=O)C[C@@H]24)c2c(C)cccc12 [Compound T-12, (41R,43S,45S)-42-(2-(3-acetyl-7-methyl-1H-indazol-1-yl)acetyl)-16-bromo-6,11-dioxa-42,2-diaza-1(2,3)-pyridina-4(3,5)-bicyclo[3.1.0]hexanacyclododecaphan-8-en-3-one]",< 1000
13,"CC(=O)c1nn(CC(=O)N2[C@H]3C[C@]4(C[C@@H]24)CN(C)CCCCC=Cc2ccc(Br)nc2NC3=O)c2cnccc12 [Compound T-13, (41R,43S,45R)-42-(2-(3-acetyl-1H-pyrazolo[3,4-c]pyridin-1-yl)acetyl)-16-bromo-6-methyl-42,2,6-triaza-1(2,3)-pyridina-4(3,5)-bicyclo[3.1.0]hexanacyclododecaphan-11-en-3-one]",< 1000
14,"CC(=O)c1cc2n(n1)CC(=O)N1[C@@H](C[C@@]3(C)C[C@@H]13)C(=O)Nc1nc(Br)ccc1COC/C=C/CCNC2=O [Compound T-14, (18aS,19aR,20aR,E)-2-acetyl-15-bromo-19a-methyl-6,7,12,17,18a,19,19a,20,20a,23-decahydro-4H-cyclopropa[4,5]pyrrolo[2,1-g]pyrazolo[1,5-k]pyrido[3,2-c][1,5,8,11,14]oxatetraazacyclononadecine-4,18,22(5H,10H)-trione]",> 10000
15,"CC(=O)c1cc2n(n1)CC(=O)N1[C@@H](C[C@@]3(C)C[C@@H]13)C(=O)Nc1nc(Br)ccc1COC/C=C\CCNC2=O [Compound T-15, (18aS,19aR,20aR,Z)-2-acetyl-15-bromo-19a-methyl-6,7,12,17,18a,19,19a,20,20a,23-decahydro-4H-cyclopropa[4,5]pyrrolo[2,1-g]pyrazolo[1,5-k]pyrido[3,2-c][1,5,8,11,14]oxatetraazacyclononadecine-4,18,22(5H,10H)-trione]",> 10000
16,"CC(=O)c1nn(CC(=O)N2[C@H]3C[C@@]4(CNS(=O)(=O)CCC=Cc5ccc(Br)nc5NC3=O)C[C@@H]24)c2cnccc12 [Compound T-16, (41R,43S,45R)-42-(2-(3-acetyl-1H-pyrazolo[3,4-c]pyridin-1-yl)acetyl)-16-bromo-7-thia-42,2,6-triaza-1(2,3)-pyridina-4(3,5)-bicyclo[3.1.0]hexanacycloundecaphan-10-en-3-one 7,7-dioxide]",< 1000
